Several values for one entry are separate records, joined by “and”; a condition that tells them apart may be missing. Equal entries are not always repeated. Toxic doses and inconclusive results are not listed. Rule as the data show it: active = T/C of 150% or more; inactive = T/C below 125%.
Test system: L1210 leukemia ip in BDF1 mice, survival T/C
Assay: NCI In Vivo Anticancer Drug Screen. Data for tumor model L1210 Leukemia (intraperitoneal) in B6D2F1 (BDF1) mice
Details: endpoint: mean survival time, higher = longer survival
How it was run: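 In this screen, tumor-bearing mice given compound are compared to those given vehicle, and their survival values are reported as a treated-to-control quotient.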

[1] = dose: 50.0 mg/kg/injection, schedule: Q01DX009 (ip), vehicle: saline with Tween-80
[2] = dose: 100.0 mg/kg/injection, schedule: Q01DX009 (ip), vehicle: saline with Tween-80
[3] = dose: 200.0 mg/kg/injection, schedule: Q01DX009 (ip), vehicle: saline with Tween-80
[4] = dose: 100.0 mg/kg/injection, schedule: Q01DX001 (ip), vehicle: saline with Tween-80
[5] = dose: 200.0 mg/kg/injection, schedule: Q01DX001 (ip), vehicle: saline with Tween-80
[6] = dose: 400.0 mg/kg/injection, schedule: Q01DX001 (ip), vehicle: saline with Tween-80
[7] = dose: 100.0 mg/kg/injection, schedule: Q04DX003 (ip), vehicle: saline
[8] = dose: 200.0 mg/kg/injection, schedule: Q04DX003 (ip), vehicle: saline
[9] = dose: 400.0 mg/kg/injection, schedule: Q04DX003 (ip), vehicle: saline
[10] = dose: 100.0 mg/kg/injection, schedule: Q01DX009 (ip), vehicle: Klucel (hydroxypropylcellulose) (HPC)
[11] = dose: 200.0 mg/kg/injection, schedule: Q01DX009 (ip), vehicle: Klucel (hydroxypropylcellulose) (HPC)
[12] = dose: 400.0 mg/kg/injection, schedule: Q01DX009 (ip), vehicle: Klucel (hydroxypropylcellulose) (HPC)
[13] = dose: 100.0 mg/kg/injection, schedule: Q01DX009 (ip), vehicle: saline
[14] = dose: 200.0 mg/kg/injection, schedule: Q01DX009 (ip), vehicle: saline
[15] = dose: 400.0 mg/kg/injection, schedule: Q01DX009 (ip), vehicle: saline
[16] = dose: 100.0 mg/kg/injection, schedule: Q04DX003 (ip), vehicle: Klucel (hydroxypropylcellulose) (HPC)
[17] = dose: 200.0 mg/kg/injection, schedule: Q04DX003 (ip), vehicle: Klucel (hydroxypropylcellulose) (HPC)
[18] = dose: 400.0 mg/kg/injection, schedule: Q04DX003 (ip), vehicle: Klucel (hydroxypropylcellulose) (HPC)
[19] = dose: 100.0 mg/kg/injection, schedule: Q01DX001 (ip), vehicle: saline
[20] = dose: 100.0 mg/kg/injection, schedule: Q01DX001 (ip), vehicle: carboxymethylcellulose (CMC)
[21] = dose: 200.0 mg/kg/injection, schedule: Q01DX001 (ip), vehicle: carboxymethylcellulose (CMC)

Measured: T/C

COc1ccc(/C=N/NC(=O)c2ccc(Cl)cc2Cl)cc1OC
inactive: [1] 103 % of control | [2] 88 % of control | [3] 92 % of control

O=S(=O)(/N=C1\C=CC=C\C1=N/S(=O)(=O)c1ccccc1)c1ccccc1
inactive: [4] 103 % of control | [5] 100 % of control | [6] 92 % of control

O=CC(NC(=O)C(O)C(O)C(O)C(O)CO)C(O)C(O)C(O)CO (stereo not given)
inactive: [7] 102 % of control | [8] 97 % of control | [9] 91 % of control

O=[N+]([O-])c1cccc(C=Nc2cc(Cl)ccc2O)c1
inactive: [10] 95 % of control and 86 % of control | [11] 96 % of control and 97 % of control | [12] 100 % of control and 91 % of control

CC(=O)Nc1ccc2ncccc2c1[N+](=O)[O-]
inactive: dose: 100.0 mg/kg/injection, schedule: Q01DX001 (ip), vehicle: other 102 % of control | dose: 200.0 mg/kg/injection, schedule: Q01DX001 (ip), vehicle: other 100 % of control | dose: 400.0 mg/kg/injection, schedule: Q01DX001 (ip), vehicle: other 100 % of control

CN(C)CCNS(=O)(=O)N(C)C
inactive: [13] 102 % of control | [7] 95 % of control | [14] 102 % of control | [8] 100 % of control | [15] 108 % of control | [9] 97 % of control

CCOC12c3cc(OC)ccc3N(S(=O)(=O)c3ccc(C)cc3)CC1C2(Br)Br (stereo not given)
inactive: [10] 97 % of control | [16] 100 % of control | [11] 87 % of control | [17] 100 % of control | [12] 94 % of control | [18] 91 % of control

O=C(NNC(=O)OCC(Cl)(Cl)Cl)OCC(Cl)(Cl)Cl
inactive: dose: 25.0 mg/kg/injection, schedule: Q04DX002 (ip), vehicle: saline with Tween-80 90 % of control | dose: 50.0 mg/kg/injection, schedule: Q04DX002 (ip), vehicle: saline with Tween-80 87 % of control

Cc1ccc(N2CCN(CC(O)COc3ccccc3Cl)CC2)cc1 (stereo not given)
inactive: [19] 95 % of control | dose: 200.0 mg/kg/injection, schedule: Q01DX001 (ip), vehicle: saline 95 % of control | dose: 400.0 mg/kg/injection, schedule: Q01DX001 (ip), vehicle: saline 95 % of control

Cc1cc([N+](=O)[O-])c(N)c([N+](=O)[O-])c1
inactive: [10] 98 % of control | [16] 105 % of control | [11] 92 % of control | [17] 105 % of control | [12] 97 % of control | [18] 105 % of control

CC(c1ccc(-c2ccccc2)cc1)C(Cl)c1ccccc1 (stereo not given)
inactive: [4] 91 % of control | [5] 91 % of control | [6] 93 % of control

COC(=O)Cc1cc(C)n(C)c(=O)c1CN1C(=O)c2ccccc2C1=O
inactive: dose: 100.0 mg/kg/injection, schedule: Q04DX003 (ip), vehicle: other 102 % of control | dose: 200.0 mg/kg/injection, schedule: Q04DX003 (ip), vehicle: other 107 % of control | dose: 400.0 mg/kg/injection, schedule: Q04DX003 (ip), vehicle: other 98 % of control

Cc1ccc(N2C(=O)CC(N3CCCCC3)C2=O)cc1 (stereo not given)
inactive: [10] 102 % of control | [11] 96 % of control | [12] 91 % of control

Nc1ccc(P(=O)(O)O)cc1
inactive: dose: 50.0 mg/kg/injection, schedule: Q01DX001 (ip), vehicle: carboxymethylcellulose (CMC) 101 % of control | [20] 97 % of control | [21] 91 % of control | dose: 400.0 mg/kg/injection, schedule: Q01DX001 (ip), vehicle: carboxymethylcellulose (CMC) 91 % of control

Cc1ccc([N+](=O)[O-])cc1NC(=O)Nc1onc(C)c1C
inactive: dose: 50.0 mg/kg/injection, schedule: Q01DX009 (ip), vehicle: Klucel (hydroxypropylcellulose) (HPC) 90 % of control | [11] 87 % of control

Cc1ccc(N2C(=O)CC(Sc3ccccc3N)C2=O)cc1 (stereo not given)
inactive: dose: 100.0 mg/kg/injection, schedule: Q01DX009 (ip), vehicle: other 114 % of control | [7] 86 % of control | dose: 200.0 mg/kg/injection, schedule: Q01DX009 (ip), vehicle: other 110 % of control | dose: 400.0 mg/kg/injection, schedule: Q01DX009 (ip), vehicle: other 93 % of control | [9] 86 % of control

CCc1nc(N)nc(N)c1-c1ccc(Cl)cc1.[O]=[Zn]
inactive: dose: 15.0 mg/kg/injection, schedule: Q01DX015 (ip), vehicle: carboxymethylcellulose (CMC) 96 % of control | dose: 30.0 mg/kg/injection, schedule: Q01DX015 (ip), vehicle: carboxymethylcellulose (CMC) 96 % of control | dose: 60.0 mg/kg/injection, schedule: Q01DX015 (ip), vehicle: carboxymethylcellulose (CMC) 123 % of control | [20] 92 % of control | dose: 120.0 mg/kg/injection, schedule: Q01DX015 (ip), vehicle: carboxymethylcellulose (CMC) 124 % of control | [21] 93 % of control

CCC1C(=O)OCc2c1cc1n(c2=O)Cc2cc3ccccc3nc2-1 (stereo not given)
inactive: dose: 2.5 mg/kg/injection, schedule: Q01DX001 (ip), vehicle: saline 102 % of control | dose: 5.0 mg/kg/injection, schedule: Q01DX001 (ip), vehicle: saline 107 % of control | dose: 10.0 mg/kg/injection, schedule: Q01DX001 (ip), vehicle: saline 102 % of control | dose: 15.0 mg/kg/injection, schedule: Q01DX001 (ip), vehicle: saline 118 % of control

CC(=O)C(C(C)=O)C1C=CC=CC=C1
inactive: [1] 93 % of control | [2] 104 % of control | [7] 95 % of control | [3] 86 % of control | [8] 122 % of control

O=CNC1CCCCC1c1ccc(C2CCCCC2NC=O)cc1 (stereo not given)
inactive: [19] 97 % of control

Cc1nc(N)[nH]c(=O)c1CCCCC#N
inactive: dose: 100.0 mg/kg/injection, schedule: Q01DX001 (ip), vehicle: Klucel (hydroxypropylcellulose) (HPC) 100 % of control | [10] 93 % of control and 106 % of control | dose: 100.0 mg/kg/injection, schedule: Q04DX002 (ip), vehicle: Klucel (hydroxypropylcellulose) (HPC) 100 % of control and 102 % of control | [16] 97 % of control | dose: 200.0 mg/kg/injection, schedule: Q01DX001 (ip), vehicle: Klucel (hydroxypropylcellulose) (HPC) 100 % of control | [11] 95 % of control and 100 % of control | dose: 200.0 mg/kg/injection, schedule: Q04DX002 (ip), vehicle: Klucel (hydroxypropylcellulose) (HPC) 102 % of control and 107 % of control | [17] 111 % of control | dose: 400.0 mg/kg/injection, schedule: Q01DX001 (ip), vehicle: Klucel (hydroxypropylcellulose) (HPC) 100 % of control | [12] 117 % of control | dose: 400.0 mg/kg/injection, schedule: Q04DX002 (ip), vehicle: Klucel (hydroxypropylcellulose) (HPC) 100 % of control and 104 % of control | [18] 102 % of control

Cc1nc(-c2ccc(N=Cc3ccc(N(CCOS(C)(=O)=O)CCOS(C)(=O)=O)cc3C)cc2)c(C)s1
inactive: dose: 5.0 mg/kg/injection, schedule: Q01DX009 (ip), vehicle: Klucel (hydroxypropylcellulose) (HPC) 120 % of control | dose: 10.0 mg/kg/injection, schedule: Q01DX009 (ip), vehicle: Klucel (hydroxypropylcellulose) (HPC) 120 % of control | dose: 20.0 mg/kg/injection, schedule: Q01DX001 (ip), vehicle: Klucel (hydroxypropylcellulose) (HPC) 121 % of control | dose: 26.6 mg/kg/injection, schedule: Q01DX001 (ip), vehicle: Klucel (hydroxypropylcellulose) (HPC) 108 % of control | dose: 40.0 mg/kg/injection, schedule: Q01DX001 (ip), vehicle: Klucel (hydroxypropylcellulose) (HPC) 119 % of control | dose: 60.0 mg/kg/injection, schedule: Q01DX001 (ip), vehicle: Klucel (hydroxypropylcellulose) (HPC) 111 % of control

CCOC(=O)C(Br)(C(=O)OCC)C(C)C
inactive: [13] 101 % of control | [14] 95 % of control | [15] 100 % of control

— PubChem BioAssay AID248 (DTP/NCI, 2004)
